Measured values published in patent US10030042B2, “Synthesis of bicyclic nucleosides” (MiRagen Therapeutics, Inc., priority 2014, dated 2018).
Entries after “also recorded” stand apart in the source; their conditions may differ. Oligonucleotides are written 5' to 3', each unit as a sugar letter and its base; * is a phosphorothioate linkage, no mark a phosphodiester; rarer units and linkages stand in square brackets, end groups in braces. Plain capitals give the bases only. [aminoLNA-N] = amino locked nucleic acid nucleoside (N: the base); l = locked nucleic acid (LNA); d = 2'-deoxy (DNA)

Legend:
[1] = test system: mature human miR-208a (22 nucleotide RNA complement); test: Duplex melting temperature (Tm) of anti-208a oligonucleotides annealed to complementary RNA; type: binding; details: for Tm: RNA complement; for ΔTm, DNA: difference to fully DNA phosphodiester 10931
Method: The melting temperature (Tm) of modified 16 nucleotide phosphodiester strands were determined and compared to the Tm of identical 16 nucleotide sequences having natural phosphodiester DNA nucleotides. Specifically, the relative aminoCBBN melting temperature (Tm) compared to the 2′-deoxynucleoside or oxoCBBN nucleoside with the same nucleobase was determined on a per incorporation basis by determining the difference between the melting temperature of the amino-modified 16 nucleotide length phosphodiester strand and that of the identical 16 nucleotide sequence utilizing either the 2′-deoxynucleoside or oxoCBBN phosphodiester DNA nucleotide. Tm differences of substitutions were compared only when they were placed in the same position of the sequence.
For example, the modified anti-208a oligonucleotides were annealed to the complementary sequence, twenty-two nucleotides in length, comprised of RNA nucleosides and a phosphate backbone. The complementary sequence was identical to the endogenous mature miRNA. Thermal denaturation temperatures (Tm) were measured as a maximum of the first derivative plot of melting curvex (A260 vs. Temp). The duplexes were constituted at 1 μM in a 0.9% NaCl buffer. Temperature was ramped from 25° C. to 95° C. at 1° C./min and OD's at 260 nm were read once per 30 seconds. Tm values are averages of at least two measurements.
Duplex melting temperatures for various modifications of a 16 nucleotide sequence, complementary to a nucleotide sequence of mature human miR-208a were measured using a Varian Cary 1E UV-Vis Spectrophotometer. Anti-miRNA 208a oligonucleotide sequences tested included a fully DNA phosphodiester (compound M-10931 (SEQ ID NO:9)), four DNA phosphodiester oligonucleotides with 1, 2 or 3 aminoCBBN thymidine residues in place of dT residues (compounds M-11915 (SEQ ID NO: 1), M-11916 (SEQ ID NO:2), M-11917 (SEQ ID NO:3), and M-11918 (SEQ ID NO:4)), mixed 9 LNA/7 DNA phosphorothioate oligonucleotide (compound M-10101 (SEQ ID NO:10)), and 2 mixed LNA/DNA/aminoCBBN phosphorothioate oligonucleotides where LNA thymidines of the parent compound, compound M-10101 (SEQ ID NO: 10), were replaced with either 1 or 2 aminoCBBN residues (compounds M-11920 (SEQ ID NO:6) and M-11919 (SEQ ID NO:5)). Duplexes were constituted at 1 μM in 0.9% NaCl. Temperature was ramped from 25° C. to 95° C. at 1° C./min and OD's at 260 nm were read once per 30 seconds.

miR-208a = test: Dual-luciferase reporter assay in HeLa cells stably expressing miR-208a; type: cell-based, human; details: FIG. 4; renilla/firefly luminescence, 24 hours after transfection, in words
Method: A HeLa cell line stably expressing miR-208a was generated. Specifically, a miRNA expression vector (Cell BioLabs, Inc.) expressing miR-208a was transfected into HeLa cells. Cells were then selected using a puromycin selection screen and clones which had detectable miR-208a expression as measured by qPCR were isolated (Ct value=˜30).
The cells were plated in a black-walled 96 well plate with 10,000 cells per well. After twenty-four hours following plating, the cells were transfected with a dual-luciferase plasmid containing the miR-208a binding site in the 3′ UTR of the renilla gene and various miR-208a inhibitors (compounds M-11919 (SEQ ID NO:5), M-11920 (SEQ ID NO:6), and M-10101 (SEQ ID NO:10)). Compound M-10591 was a non-targeting control. The cells were incubated for 24 hours at 37° C. and then both firefly (as a transfection normalization) and renilla levels were measured by luminescence using the Dual-Luciferase Reporter Assay System (Promega). Data was normalized to cells treated with only the miR-208a dual luciferase plasmid (psi check 208a).

RNA Complement = details: Table 3, cited from earlier work; for Tm: DNA 9mer, phosphate backbone, RNA complement, literature values
[2] = Table 3, PS backbone 10101-like
[3] = Table 3, PS backbone, versus parent 10101
[4] = Table 1, phosphate backbone, duplex 1 μM in 0.9% NaCl

## ICs; dTs; dTs; dTs; ITs; ITs; dGs; ICs; dTs; ICs; IGs; dTs; ICs; dTs; ITs; IA [Compound M-10101, reference compound]
[1]; [2]
  Tm: 86.7 °C

## lCs.dTs.dTs.dTs.abTs.abTs.dGs. lCs.dTs.lCs.lGs.dTs.lCs.dTs.lTs.lA [Compound M-11919]
[1]; [2]
  Tm: 80.04 °C
[1]; [3]
  ΔTm, parent: −6.66 °C
  ΔTm/mod: −6.66 °C/modification
miR-208a
  miR-208a inhibition activity: comparable activity as compound M-10101; also recorded: retains all activity of the optimized M-10101

## dG; IT; dG; dA; IT; dA; IT; dG; dC (DNA dGlTdGdAlTdAlTdGdC) [DNA_9mer_PO_3LNA-T, literature DNA 9mer phosphodiester with three LNA-T]
RNA Complement
  Tm: 50 °C

## dG; aIT; dG; dA; aIT; dA; aIT; dG; dC (DNA dG[aminoLNA-T]dGdA[aminoLNA-T]dA[aminoLNA-T]dGdC) [DNA_9mer_PO_3aminoLNA-T, literature DNA 9mer phosphodiester with three aminoLNA-T]
RNA Complement
  Tm: 47 °C
RNA Complement; aminoLNA 9mer versus LNA 9mer
  ΔTm, parent: −1 °C
  ΔTm/mod: −1 °C/modification

## bC.bT.bT.bT.bT.bT.dG.bC.bT.bC. dG.bT.bC.bT.bT.dA [Compound M-10924]
[1]; Table 1
  ΔTm, DNA: 36.7 °C
[1]; Table 1, per modification, versus DNA
  ΔTm/mod: 2.8 °C/modification
[1]; [4]
  Tm: 89.8 °C

## lCs.dTs.dTs.dTs.lTs.lTs.dGs.lCs. dTs.lCs.lGs.dTs.lCs.dTs.abTs.lA [Compound M-11920]
[1]; [2]
  Tm: 85.125 °C
[1]; [3]
  ΔTm, parent: −1.575 °C
  ΔTm/mod: −0.7875 °C/modification
[1]; comparison of M-11920 with M-11919
  Affinity for the miR-208a RNA (Tm data, in words): less affinity for the miR-208a RNA than the M-11919
miR-208a
  miR-208a inhibition activity: slightly less activity compared to the other two inhibitors

## dC; dT; dT; dT; dT; dT; dG; dC; dT; dC; dG; dT; dC; dT; dT; dA (DNA CTTTTTGCTCGTCTTA; unmodified DNA) [Compound M-10931, reference compound]
[1]; Table 1
  ΔTm, DNA: 0 °C
[1]; [4]
  Tm: 53.1 °C
